In patent US10344019B2 (priority 2010, dated 2019):
pEC50: −log10 of the molar value. Like-named read-outs stand apart in the source and are kept apart here.

Legend:
Format in all cases: cell-based
[1] = test system: Q30R in genotype 1a NS5A, 1a Rluc replicon transfected into Huh-7 cured-51 cells; assay: HCV replicon assay, resistance mutant 1a Q30R; conditions: Hepatitis C virus, Huh-7, read-out: 1a Q30R
Method in brief: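 Q30R introduced into genotype 1a H77 RLuc replicon by site-directed mutagenesis; replicon RNA transfected into Huh-7 cured-51 cells.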

[2] = test system: HCV 1a RLuc cells (dicistronic genotype 1a H77 replicon, RLuc reporter); assay: microbe, parasite or virus in culture; conditions: Hepatitis C virus, read-out: 1a
Method in brief: (§1)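 Replicon cells stably carrying the listed RLuc-encoding dicistronic replicons were seeded and treated with DMSO serial dilutions of compound (10 mM stocks) diluted into culture medium. After 72 h, cells were lysed and Renilla luciferase activity measured. EC50 was derived by non-linear regression.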

[3] = test system: HCV 3a RLuc cells (NS5A chimeric genotype 1b Con1 replicon with consensus genotype 3a NS5A gene); assay: microbe, parasite or virus in culture; conditions: Hepatitis C virus
Method in brief: as §1

[4] = test system: HCV 4a Rluc cells (NS5A chimeric genotype 1b Con1 replicon with genotype 4a NS5A gene); assay: microbe, parasite or virus in culture; conditions: Hepatitis C virus, read-out: 4a
Method in brief: as §1

[5] = test system: HCV 2a JFH-1 Rluc cells (dicistronic genotype 2a JFH-1 replicon, RLuc reporter); assay: microbe, parasite or virus in culture; conditions: Hepatitis C virus, read-out: 2a JFH
Method in brief: as §1

[6] = test system: HCV 1b RLuc cells (dicistronic genotype 1b Con1 replicon, RLuc reporter); assay: microbe, parasite or virus in culture; conditions: Hepatitis C virus, read-out: 1b (nM)
Method in brief: as §1

[7] = test system: HCV 2b Rluc cells (NS5A chimeric genotype 2a JFH-1 replicon with genotype 2b MD2b-1 NS5A gene, M31 present); assay: microbe, parasite or virus in culture; conditions: Hepatitis C virus, read-out: 2b
Method in brief: as §1

[8] = test system: HCV 2a Rluc cells (NS5A chimeric genotype 2a JFH-1 replicon with genotype 2a J6 strain NS5A gene, M31 present); assay: HCV replicon reporter assay, genotype 2a J6 (M31 present); conditions: Hepatitis C virus, read-out: 2a J6
Method in brief: as §1

[9] = read-out: 3a, genotype 3a replicon
[10] = 72 h, Table 1, genotype 1a H77 replicon, 72 hours
[11] = read-out: 3a, Table 1, genotype 3a NS5A chimeric replicon
[12] = 72 h, Table 1, genotype 2a JFH-1 replicon, 72 hours
[13] = read-out: 3a, genotype 3a NS5A chimeric replicon
[14] = genotype 2a JFH-1 RLuc replicon

| Structure (SMILES) | pEC50 [1] | pEC50 ([2]; genotype 1a replicon) | pEC50 [3, 9] | pEC50 [4] | pEC50 ([5]; genotype 2a JFH-1 replicon) | EC50 [6] [nM] | pEC50 [7] | pEC50 [8] | pEC50 [2, 10] | pEC50 [3, 11] | pEC50 [5, 12] | EC50 ([6]; 72 h) [nM] | pEC50 ([2]; 72 h, Table 2, genotype 1a H77 replicon, 72 hours) | pEC50 ([3]; read-out: 3a, Table 2, genotype 3a NS5A chimeric replicon) | pEC50 ([5]; 72 h, Table 2, genotype 2a JFH-1 replicon, 72 hours) | pEC50 ([2]; genotype 1a H77 RLuc replicon) | pEC50 [3, 13] | pEC50 [5, 14] |
| --- | --- | --- | --- | --- | --- | --- | --- | --- | --- | --- | --- | --- | --- | --- | --- | --- | --- | --- |
| COC[C@H]1CC(c2nc3ccc4cc(-c5ccc(-c6cnc([C@@H]7CCCN7C(=O)[C@H](NC(=O)C7CC7)c7ccccc7)[nH]6)cc5)ccc4c3[nH]2)N(C(=O)[C@@H](NC(=O)OC)C(C)C)C1 (stereo in doubt) [Example 425] | 9.00 to 12.00 | 9.00 to 12.00 | 9.00 to 12.00 | 9.00 to 12.00 | 9.00 to 12.00 | 0.034 | 9.00 to 12.00 | 9.00 to 12.00 |  |  |  |  |  |  |  |  |  |  |
| COC(=O)N[C@H](C(=O)N1CCC[C@H]1c1ncc(-c2cc3c4c(c2)OCc2cc(-c5cnc([C@@H]6CCCN6C(=O)[C@H](NC(=O)OC)c6ccccc6)[nH]5)cc(c2-4)OC3)[nH]1)C(C)C [Example 25c] | 9.00 to 12.00 |  |  | 9.00 to 12.00 |  |  | 9.00 to 12.00 | 7.36 to 9.00 | 9.00 to 12.00 | 9.00 to 12.00 | 9.00 to 12.00 | 0.031 |  |  |  |  |  |  |
| COC(=O)N[C@@H](C(=O)N1CCC[C@H]1c1ncc(-c2cc3c4c(c2)OCc2cc(-c5cnc([C@@H]6CCCN6C(=O)[C@H](NC(=O)OC)c6ccccc6)[nH]5)cc(c2-4)OC3)[nH]1)c1ccccc1 [Example 25d] | 9.00 to 12.00 |  |  | 9.00 to 12.00 |  |  | 9.00 to 12.00 | 9.00 to 12.00 | 9.00 to 12.00 | 9.00 to 12.00 | 9.00 to 12.00 | 0.048 |  |  |  |  |  |  |
| COC(=O)N[C@H](C(=O)N1CCC[C@H]1c1nc2ccc3cc(-c4ccc5c(ccc6nc([C@@H]7[C@H]8CC[C@H](C8)N7C(=O)[C@@H](NC(=O)OC)C(C)C)[nH]c65)c4)ccc3c2[nH]1)C(C)C [Example 63] | 7.36 to 9.00 |  |  | 9.00 to 12.00 |  |  | < 7.36 | 7.36 to 9.00 |  |  |  | 0.019 | 9.00 to 12.00 | 9.00 to 12.00 | 9.00 to 12.00 |  |  |  |
| COC(=O)N[C@H](C(=O)N1CCC[C@H]1c1nc2ccc3cc(-c4ccc5c(ccc6nc([C@@H]7CC8(CN7C(=O)[C@H](NC(=O)OC)c7ccccc7)OCCO8)[nH]c65)c4)ccc3c2[nH]1)C(C)C [Example 317] | 9.00 to 12.00 | 9.00 to 12.00 | 9.00 to 12.00 | 9.00 to 12.00 | 9.00 to 12.00 | 0.023 | 9.00 to 12.00 | 9.00 to 12.00 |  |  |  |  |  |  |  |  |  |  |
| COC(=O)N[C@H](C(=O)N1CCC[C@H]1c1nc2ccc3cc(-c4ccc5c(ccc6nc([C@@H]7[C@H]8CC[C@H](C8)N7C(=O)[C@H](NC(=O)OC)c7ccccc7)[nH]c65)c4)ccc3c2[nH]1)C(C)C [Example 325] | 7.36 to 9.00 | 9.00 to 12.00 | 9.00 to 12.00 | 9.00 to 12.00 | 9.00 to 12.00 | 0.018 | 7.36 to 9.00 | 9.00 to 12.00 |  |  |  |  |  |  |  |  |  |  |
| COC(=O)N[C@H](C(=O)N1CCC[C@H]1c1nc2ccc3cc(-c4ccc5c(ccc6nc([C@@H]7[C@@H]8CC[C@@H](C8)N7C(=O)[C@@H](NC(=O)OC)C(C)C)[nH]c65)c4)ccc3c2[nH]1)C(C)C [Example 339] | 7.36 to 9.00 | 9.00 to 12.00 | 9.00 to 12.00 | 9.00 to 12.00 | 9.00 to 12.00 | 0.026 | 7.36 to 9.00 | 9.00 to 12.00 |  |  |  |  |  |  |  |  |  |  |
| COC[C@@H]1C[C@@H](c2nc3ccc4cc(-c5ccc6c(ccc7nc([C@@H]8CCCN8C(=O)[C@@H](NC(=O)OC)C(C)C)[nH]c76)c5)ccc4c3[nH]2)N(C(=O)[C@@H](NC(=O)OC)C(C)C)C1 [Example 397] | 9.00 to 12.00 | 9.00 to 12.00 | 9.00 to 12.00 | 9.00 to 12.00 | 9.00 to 12.00 | 0.017 | 9.00 to 12.00 | 9.00 to 12.00 |  |  |  |  |  |  |  |  |  |  |
| COC(=O)N[C@H](C(=O)N1CCC[C@H]1c1ncc(-c2ccc3c(c2)COc2cc4c(ccc5nc([C@@H]6C[C@H](C)CN6C(=O)[C@H](NC(=O)OC)c6ccccc6)[nH]c54)cc2-3)[nH]1)C(C)C [Example 543] | 9.00 to 12.00 |  |  | 9.00 to 12.00 |  |  | 9.00 to 12.00 | 9.00 to 12.00 |  |  |  |  |  |  |  | 9.00 to 12.00 | 9.00 to 12.00 | 9.00 to 12.00 |
| COC[C@H]1C[C@@H](c2nc3ccc4cc5c(cc4c3[nH]2)OCc2cc(-c3cnc([C@@H]4C[C@H](C)CN4C(=O)[C@H](NC(=O)OC)c4ccccc4)[nH]3)ccc2-5)N(C(=O)[C@@H](NC(=O)OC)C(C)C)C1 [Example 572] | 9.00 to 12.00 |  |  | 9.00 to 12.00 |  |  | 9.00 to 12.00 | 9.00 to 12.00 |  |  |  |  |  |  |  | 9.00 to 12.00 | 9.00 to 12.00 | 9.00 to 12.00 |
| COC(=O)N[C@H](C(=O)N1[C@H](c2nc3ccc4cc5c(cc4c3[nH]2)OCc2cc(-c3cnc(C4CCCN4C(=O)[C@H](NC(=O)OC)c4ccccc4)[nH]3)ccc2-5)C[C@@H]2CCC[C@@H]21)C(C)C (some centres unmarked) [Example 574] | 9.00 to 12.00 |  |  | 9.00 to 12.00 |  |  | 9.00 to 12.00 | 9.00 to 12.00 |  |  |  |  |  |  |  | 9.00 to 12.00 | 9.00 to 12.00 | 9.00 to 12.00 |
| COC[C@H]1C[C@@H](c2nc3c([nH]2)-c2cc4c(cc2CC3)-c2ccc(-c3cnc([C@@H]5CCCN5C(=O)[C@@H](NC(=O)OC)C(C)C)[nH]3)cc2CO4)N(C(=O)[C@H](NC(=O)OC)c2ccccc2)C1 [Example 587] | 9.00 to 12.00 |  |  | 9.00 to 12.00 |  |  | 9.00 to 12.00 | 9.00 to 12.00 |  |  |  |  |  |  |  | 9.00 to 12.00 | 9.00 to 12.00 | 9.00 to 12.00 |
| COC(=O)N[C@H](C(=O)N1CCC[C@H]1c1ncc(-c2ccc3c(c2)COc2cc4c(ccc5nc([C@@H]6CCCN6C(=O)[C@H](NC(=O)OC)c6ccccc6)[nH]c54)cc2-3)[nH]1)[C@@H](C)OC [Example 588] | 9.00 to 12.00 |  |  | 9.00 to 12.00 |  |  | 9.00 to 12.00 | 9.00 to 12.00 |  |  |  |  |  |  |  | 9.00 to 12.00 | 9.00 to 12.00 | 9.00 to 12.00 |
| COC[C@@H]1C[C@@H](c2nc3ccc4cc5c(cc4c3[nH]2)OCc2cc(-c3cnc([C@@H]4CCCN4C(=O)[C@@H](NC(=O)OC)C(C)C)[nH]3)ccc2-5)N(C(=O)[C@H](NC(=O)OC)c2ccccc2)C1 [Example 589] | 9.00 to 12.00 |  |  | 9.00 to 12.00 |  |  | 9.00 to 12.00 | 9.00 to 12.00 |  |  |  |  |  |  |  | 9.00 to 12.00 | 9.00 to 12.00 | 9.00 to 12.00 |
| COC(=O)N[C@H](C(=O)N1[C@@H](C)CC[C@H]1c1ncc(-c2ccc3c(c2)COc2cc4c(ccc5nc([C@@H]6CC[C@H](C)N6C(=O)[C@@H](NC(=O)OC)[C@@H](C)OC)[nH]c54)cc2-3)[nH]1)[C@@H](C)OC [Example 592] | 9.00 to 12.00 |  |  | 9.00 to 12.00 |  |  | 9.00 to 12.00 | 9.00 to 12.00 |  |  |  |  |  |  |  | 9.00 to 12.00 | 9.00 to 12.00 | 9.00 to 12.00 |
